Data: the supplement of paper PMC5908809

What was measured:
[1] = tested on: normal NK cells expanded with K562-aAPC; test: percent inhibition of viability; higher = more inhibition; conditions: 72 h, IL-2 2.5 ng/mL
Description: (§1)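 Drug sensitivity and resistance testing on K562-aAPC-expanded normal NK cells: 5 concentrations (10-fold steps over a 10,000-fold range), 72 h at 37 °C, viability by CellTiter-Glo normalised to DMSO and benzethonium chloride controls; DSS from the fitted curve.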

[2] = tested on: IMC-1 (IL-2 20 ng/mL); test: drug sensitivity score (DSS) (DSS units); higher = more sensitive; extreme values may be limits of the assay; conditions: 72 h
[3] = tested on: normal primary NK cells, pool 2 (3 donors) (IL-2 2.5 ng/mL); test: as above; conditions: 72 h
[4] = tested on: DERL-7 (IL-2 2.5 ng/mL); test: as above; conditions: 72 h
[5] = tested on: normal primary NK cells, pool 3 (3 donors) (IL-2 2.5 ng/mL); test: as above; conditions: 72 h
[6] = tested on: normal primary NK cells, pool 1 (3 donors), resting (IL-2 0 ng/mL); test: as above; conditions: 72 h
[7] = tested on: NK-YS (IL-2 2.5 ng/mL); test: as above; conditions: 72 h
[8] = tested on: YT (IL-2 2.5 ng/mL); test: as above; conditions: 72 h
[9] = tested on: NKL (IL-2 2.5 ng/mL); test: as above; conditions: 72 h
[10] = tested on: SNK-6 (IL-2 2.5 ng/mL); test: as above; conditions: 72 h
[11] = tested on: NK-92 (IL-2 2.5 ng/mL); test: as above; conditions: 72 h
[12] = tested on: KAI3 (IL-2 2.5 ng/mL); test: as above; conditions: 72 h
[13] = tested on: normal primary NK cells, pool 1 (3 donors) (IL-2 2.5 ng/mL); test: as above; conditions: 72 h
[14] = tested on: KHYG-1 (IL-2 2.5 ng/mL); test: as above; conditions: 72 h
[15] = tested on: IMC-1 (IL-2 20 ng/mL); test: percent inhibition of viability; higher = more inhibition; conditions: 72 h
[16] = tested on: normal primary NK cells, pool 2 (3 donors) (IL-2 2.5 ng/mL); test: as above; conditions: 72 h
[17] = tested on: DERL-7 (IL-2 2.5 ng/mL); test: as above; conditions: 72 h
[18] = tested on: normal primary NK cells, pool 3 (3 donors) (IL-2 2.5 ng/mL); test: as above; conditions: 72 h
[19] = tested on: normal primary NK cells, pool 1 (3 donors), resting (IL-2 0 ng/mL); test: as above; conditions: 72 h
[20] = tested on: NK-YS (IL-2 2.5 ng/mL); test: as above; conditions: 72 h
[21] = tested on: YT (IL-2 2.5 ng/mL); test: as above; conditions: 72 h
[22] = tested on: NKL (IL-2 2.5 ng/mL); test: as above; conditions: 72 h
[23] = tested on: SNK-6 (IL-2 2.5 ng/mL); test: as above; conditions: 72 h
[24] = tested on: NK-92 (IL-2 2.5 ng/mL); test: as above; conditions: 72 h
[25] = tested on: KAI3 (IL-2 2.5 ng/mL); test: as above; conditions: 72 h
[26] = tested on: normal primary NK cells, pool 1 (3 donors) (IL-2 2.5 ng/mL); test: as above; conditions: 72 h
[27] = tested on: KHYG-1 (IL-2 2.5 ng/mL); test: as above; conditions: 72 h
[28] = tested on: normal NK cells expanded with K562-aAPC; test: drug sensitivity score (DSS) (DSS units); higher = more sensitive; extreme values may be limits of the assay; conditions: 72 h; IL-2 2.5 ng/mL
Description: as §1

O=C(c1ccc(C(=O)N2CCC(N3CCCC3)CC2)c(Nc2ccccc2)c1)N1CCC(N2CCCC2)CC1 [UNC1215] (max concentration tested 30000 nM)
percent inhibition of viability [%]
Conditions | 3 nM | 30 nM | 300 nM | 3000 nM | 30000 nM
[1] | 3.82 | 0.21 | 4.98 | 5.27 | 6.03
[15] | -3.72 | -5.44 | 3.3 | 4.34 | 14.3
[16] | -8.79 | -4.27 | -3.06 | 7.44 | 11.8
[17] | -1.53 | 0.01 | 3.61 | 7.89 | 3.14
[18] | -6.54 | -6.05 | -0.93 | 8.8 | 12.9
[19] | -4.97 | 4.4 | -12.3 | -0.15 | -14.2
[20] | -2.93 | -6.82 | 1.29 | 4.26 | 12.9
[21] | -2.24 | -2.54 | -0.78 | 1.55 | 4.57
[22] | -7.8 | -11.1 | -0.61 | -5.87 | 10.9
[23] | -4.87 | -19.4 | 0.88 | -4.07 | -10.5
[24] | -15.1 | -6.53 | 5.43 | 7.05 | 13.6
[25] | 1.7 | 4.58 | 5.63 | 3.2 | 16.4
[26] | -4.87 | 7.23 | -8 | 1.14 | -2.52
[27] | -1.52 | -1.25 | -0.64 | 3.44 | 11.4

Conditions | drug sensitivity score
[2] | 0.31
[3] | 0.28
[4] | 0
[5] | 0.52
[6] | 0
[7] | 0.25
[8] | 0
[9] | 0
[10] | 0
[11] | 0.29
[12] | 0.59
[13] | 0
[14] | 0.12
[28] | 0

CC(=O)O[C@@]12CO[C@@H]1C[C@H](O)[C@@]1(C)C(=O)[C@H](O)C3=C(C)[C@@H](OC(=O)[C@H](O)[C@@H](NC(=O)OC(C)(C)C)c4ccccc4)C[C@@](O)([C@@H](OC(=O)c4ccccc4)[C@H]21)C3(C)C [Docetaxel] (max concentration tested 1000 nM)
percent inhibition of viability [%]
Conditions | 0.1 nM | 1 nM | 10 nM | 100 nM | 1000 nM
[1] | 1.57 | -0.15 | 44.7 | 62.4 | 60.9
[15] | -1.65 | 2.39 | 97.9 | 101 | 101
[16] | -10.9 | -7.43 | 13.8 | 3.59 | 13.1
[17] | -4.53 | 0.19 | 99.5 | 100 | 100
[18] | -13.5 | -17 | 14 | 7.86 | 24.8
[19] | -16.6 | -21.6 | -3.21 | -14.6 | 1.53
[20] | -7.69 | 14.3 | 74.8 | 77.7 | 73.1
[21] | -3.12 | 22.3 | 90.7 | 105 | 105
[22] | -13.8 | 29 | 88.5 | 97.8 | 96.7
[23] | 15 | 38.3 | 77.9 | 76.7 | 70.6
[24] | -6.6 | 2.65 | 46 | 98.9 | 104
[25] | -10.5 | 19.4 | 46.7 | 57.1 | 51.6
[26] | -5.72 | -1.18 | 7.27 | 4.99 | 10.2
[27] | -5.67 | 3.57 | 90.9 | 108 | 109

Conditions | drug sensitivity score
[2] | 30.5
[3] | 0.25
[4] | 30.4
[5] | 1.58
[6] | 0
[7] | 25.9
[8] | 31.9
[9] | 32.2
[10] | 28.8
[11] | 23.4
[12] | 18.3
[13] | 0
[14] | 29.3
[28] | 16.8

CCn1c(=O)c(-c2cc[nH]n2)cc2c(C)nc(N)nc21 [Voxtalisib] (max concentration tested 10000 nM)
percent inhibition of viability [%]
Conditions | 1 nM | 10 nM | 100 nM | 1000 nM | 10000 nM
[1] | 0.41 | -5.61 | 9.15 | 33.9 | 60.2
[15] | -10.6 | -2.45 | -10.8 | -9.7 | 16.3
[16] | -10.4 | 2.91 | 12.1 | 20.6 | 40.3
[17] | 5.41 | 4.21 | 13.1 | 64 | 90.5
[18] | -5.2 | -0.71 | 13.1 | 17.8 | 35.1
[19] | -7.13 | 11.3 | 7.69 | 23 | 43.4
[20] | -5.07 | 0.15 | 3.01 | 23.8 | 69.5
[21] | -4.53 | -3.54 | 0.98 | 38.7 | 88.6
[22] | -8.64 | -12.9 | -1.2 | 46.7 | 80.6
[23] | -15.8 | -23.8 | -25.5 | -0.25 | 72.2
[24] | -8.65 | 11.8 | 10.3 | 47.6 | 82.8
[25] | -4.78 | -4.19 | 6.21 | 42.3 | 75.8
[26] | -5.05 | 2.34 | 10.6 | 28.2 | 49.9
[27] | -9 | -5.41 | -5.59 | 17.8 | 79.4

Conditions | drug sensitivity score
[2] | 0.15
[3] | 4.74
[4] | 13.8
[5] | 4.03
[6] | 5.05
[7] | 7.02
[8] | 9.92
[9] | 10.1
[10] | 3.96
[11] | 10.7
[12] | 9.29
[13] | 6.3
[14] | 7.22
[28] | 7.48

COCC[n+]1c2c(n(Cc3cnccn3)c1C)C(=O)c1ccccc1C2=O [YM155] (max concentration tested 10000 nM)
percent inhibition of viability [%]
Conditions | 1 nM | 10 nM | 100 nM | 1000 nM | 10000 nM
[1] | -6.82 | 3.02 | 36.7 | 96.8 | 100
[15] | 65.3 | 99.4 | 100 | 101 | 100
[16] | -1.75 | 4.96 | 15.5 | 50.5 | 97.1
[17] | 7.39 | 49.9 | 100 | 101 | 100
[18] | -2.28 | 1.02 | 6.74 | 31.9 | 86.7
[19] | -2.05 | -12.4 | 35.7 | 79.2 | 98.8
[20] | 0.18 | 29 | 97.7 | 107 | 103
[21] | 5.75 | 59.2 | 102 | 106 | 102
[22] | 10.2 | 90.5 | 104 | 108 | 102
[23] | 8.28 | 13.1 | 85.6 | 98.6 | 100
[24] | -8.35 | 27.6 | 93.5 | 105 | 102
[25] | 8.21 | 49.4 | 93.5 | 106 | 103
[26] | -4.81 | -8.82 | 20.6 | 54.2 | 100
[27] | 2.01 | 20.5 | 102 | 106 | 102

Conditions | drug sensitivity score
[2] | 48.1
[3] | 12
[4] | 36.2
[5] | 8.63
[6] | 19.1
[7] | 34.2
[8] | 37.6
[9] | 42.9
[10] | 29.9
[11] | 33.2
[12] | 35.8
[13] | 12.9
[14] | 33.8
[28] | 22

O=C(Nc1cccc(C(F)(F)F)c1)Nc1cc(S(=O)(=O)NC2CC2)ccc1-c1ccsc1 [AGI-6780] (max concentration tested 10000 nM)
percent inhibition of viability [%]
Conditions | 1 nM | 10 nM | 100 nM | 1000 nM | 10000 nM
[1] | -7.15 | -5.5 | -5.48 | -5.66 | 6.74
[15] | -3.83 | -6.4 | -1.13 | -1.96 | 12.3
[16] | -16 | -3.85 | -3.48 | 9.29 | 20.2
[17] | 2.8 | 2.88 | 5.06 | 7.2 | 42.2
[18] | -11.5 | -1.88 | -0.35 | 8.79 | 8.51
[19] | 2.29 | 1.29 | 13 | 17.2 | 44.5
[20] | -0.22 | 0.5 | -0.98 | 2.65 | 23.1
[21] | -2.18 | -6.24 | -5.3 | 5.28 | 46.9
[22] | -8.69 | -12.6 | -8.03 | -5.7 | 20.2
[23] | -7.22 | 11.7 | 2.33 | 11.1 | 32.3
[24] | -7.9 | -10.9 | -5.67 | 20.1 | 65.8
[25] | 7.81 | -7.37 | -5.02 | -1.47 | 24.4
[26] | -6.68 | -2.93 | 8.08 | 7.42 | 23.6
[27] | 0.2 | -3.96 | -1.95 | 2.69 | 43.5

Conditions | drug sensitivity score
[2] | 0.03
[3] | 1.59
[4] | 3.34
[5] | 0
[6] | 4.5
[7] | 1.21
[8] | 3.31
[9] | 0.4
[10] | 2.72
[11] | 6.57
[12] | 0.81
[13] | 1.25
[14] | 2.61
[28] | 0
